Read-outs that look alike come from different tables or passages of the source.
Tested on: NL-RLuc virus
Assay: Inhibition of HIV replication (NL-RLuc virus, luciferase readout, MT-2 cells)
Assay type: cell-based
Details: Human immunodeficiency virus 1, MT2, 120 h
Excerpt: Inhibition of HIV Replication:
A recombinant NL-RLuc proviral clone was constructed in which a section of the nef gene from NL4-3 was replaced with the Renilla Luciferase gene. This virus is fully infectious and can undergo multiple cycles of replication in cell culture. In addition, the luciferous reporter provides a simple and easy method for quantitating the extent of virus growth and consequently, the antiviral activity of test compounds. The plasmid pNLRLuc contains the proviral NL-Rluc DNA cloned into pUC18 at the PvuII site. The NL-RLuc virus was prepared by transfection of 293T cells with the plasmid pNLRLuc. Transfections were performed using the LipofectAMINE PLUS kit from Invitrogen (Carlsbad, Calif.) according to the manufacturer and the virus generated was titered in MT-2 cells. For susceptibility analyses, the titrated virus was used to infect MT-2 cells in the presence of compound, and after 5 days of incubation, cells were processed and quantitated for virus growth by the amount of expressed luciferase. Assay media was RPMI 1640 supplemented with 10% heat inactivated fetal bovine serum (FBS), 100 units/ml penicillin G/100 units/ml streptomycin, 10 mM HEPES buffer pH 7.55 and 2 mM L-glutamine. The results from at least 2 experiments were used to calculate the EC50 values. Luciferase was quantitated using the Dual Luciferase kit from Promega (Madison, Wis.). Susceptibility of viruses to compounds was determined by incubation in the presence of serial dilutions of the compound. The 50% effective concentration (EC50) was calculated by using the exponential form of the median effect equation where (Fa)=1/[1+(ED50/drug conc.)^m] (Johnson V A, Byington R T. Infectivity Assay. In Techniques in HIV Research. ed. Aldovini A, Walker B D. 71-76. New York: Stockton Press. 1990). Activity equal to A refers to a compound having an EC50≤100 nM, while B and C denote compounds having an EC50 between 100 nM and luM (B) or >1 uM (C).

## Cc1c([C@H](OC(C)(C)C)C(=O)O)c2n3cc(nc3c1C(C)O)-c1cccc(c1)-c1cc(F)c(F)cc1O[C@@H](C)COCCOC1(C)CCN2CC1 (single isomer, unassigned) [Example 16]
read-out: Activity
  EC50: < 0.1 µM
read-out: EC50 μM
  EC50: 0.002 µM

## Cc1cc2nc3cn2c(c1[C@H](OC(C)(C)C)C(=O)O)N1CCC(C)(CC1)OCCOC[C@H](C)Oc1cc(F)c(F)cc1-c1cccc-3c1 [Example 1, (2S)-2-(tert-Butoxy)-2-[(22S)-17,18-difluoro-4,22,28-trimethyl-21,24,27-trioxa-1,7,34-triazahexacyclo[26.2.2.1^6,^9.1^1^0,^1^4.0^2,^7.0^1^5,^2^0]tetratriaconta-2,4,6(34),8,10(33),11,13,15(20),16,18-decaen-3-yl]acetic Acid]
read-out: Activity
  EC50: < 0.1 µM
read-out: EC50 μM
  EC50: 0.001 µM

## Cc1c([C@H](OC(C)(C)C)C(=O)O)c2n3cc(nc3c1C)-c1cccc(c1)-c1cc(F)c(F)cc1O[C@@H](C)COCCOC1(C)CCN2CC1 [Example 2, (2S)-2-(tert-Butoxy)-2-[(22S)-17,18-difluoro-4,5,22,28-tetramethyl-21,24,27-trioxa-1,7,34-triazahexacyclo[26.2.2.1^6,^9.1^1^0,^1^4.0^2,^7.0^1^5,^2^0]tetratriaconta-2,4,6(34),8,10(33),11,13,15(20),16,18-decaen-3-yl]acetic Acid]
read-out: Activity
  EC50: < 0.1 µM

## Cc1c([C@@H](OC(C)(C)C)C(=O)O)c2n3cc(nc3c1C)-c1cccc(c1)-c1cc(F)c(F)cc1O[C@@H](C)COCCOC1(C)CCN2CC1 [Example 3, (2R)-2-(tert-butoxy)-2-((6S,Z)-44,45-difluoro-14,27,6-trimethyl-5,8,11-trioxa-2(5,2)-imidazo[1,2-a]pyridina-1(1,4)-piperidina-3(1,3),4(1,2)-dibenzenacycloundecaphane-26-yl)acetic Acid]
read-out: Activity
  EC50: 0.1 to 1 µM
read-out: EC50 μM
  EC50: 0.305 µM

## CCC(C)(C)O[C@H](C(=O)O)c1c(C)c(C)c2nc3cn2c1N1CCC(C)(CC1)OCCOC[C@H](C)Oc1cc(F)c(F)cc1-c1cccc-3c1 [Example 4, (2S)-2-[(22S)-17,18-Difluoro-4,5,22,28-tetramethyl-21,24,27-trioxa-1,7,34-triazahexacyclo[26.2.2.1^6,^9.1^1^0,^1^4.0^2,^7.0^1^5,^2^0]tetratriaconta-2,4,6(34),8,10(33),11,13,15(20),16,18-decaen-3-yl]-2-[(2-methylbutan-2-yl)oxy]acetic Acid]
read-out: Activity
  EC50: < 0.1 µM

## Cc1c([C@H](O)C(=O)O)c2n3cc(nc3c1C)-c1cccc(c1)-c1cc(F)c(F)cc1O[C@@H](C)COCCOC1(C)CCN2CC1 [Example 5, (2S)-2-[(22S)-17,18-Difluoro-4,5,22,28-tetramethyl-21,24,27-trioxa-1,7,34-triazahexacyclo[26.2.2.1^6,^9.1^1^0,^1^4.0^2,^7.0^1^5,^2^0]tetratriaconta-2,4,6(34),8,10(33),11,13,15(20),16,18-decaen-3-yl]-2-hydroxyacetic Acid]
read-out: Activity
  EC50: 0.1 to 1 µM
read-out: EC50 μM
  EC50: 0.283 µM

## Cc1c([C@H](OC(C)(C)C)C(=O)O)c2n3cc(nc3c1CO)-c1cccc(c1)-c1cc(F)c(F)cc1O[C@@H](C)COCCOC1(C)CCN2CC1 [Example 6, (2S)-2-(tert-Butoxy)-2-[(22S)-17,18-difluoro-5-(hydroxymethyl)-4,22,28-trimethyl-21,24,27-trioxa-1,7,34-triazahexacyclo[26.2.2.1^6,^9.1^1^0,^1^4.0^2,^7.0^1^5,^2^0]tetratriaconta-2,4,6(34),8,10(33),11,13,15(20),16,18-decaen-3-yl]acetic Acid]
read-out: Activity
  EC50: < 0.1 µM
read-out: EC50 μM
  EC50: 0.002 µM

## Cc1cc2nc3c(Cl)n2c(c1[C@H](OC(C)(C)C)C(=O)O)N1CCC(C)(CC1)OCCOC[C@H](C)Oc1cc(F)c(F)cc1-c1cccc-3c1 [Example 7, (2S)-2-(tert-Butoxy)-2-[(22S)-8-chloro-17,18-difluoro-4,22,28-trimethyl-21,24,27-trioxa-1,7,34-triazahexacyclo[26.2.2.1^6,^9.1^1^0,^1^4.0^2,^7.0^1^5,^2^0]tetratriaconta-2,4,6(34),8,10(33),11,13,15(20),16,18-decaen-3-yl]acetic Acid]
read-out: Activity
  EC50: < 0.1 µM

## Cc1c([C@H](OC(C)(C)C)C(=O)O)c2n3c(Cl)c(nc3c1C)-c1cccc(c1)-c1cc(F)c(F)cc1O[C@@H](C)COCCOC1(C)CCN2CC1 [Example 8, (2S)-2-(tert-Butoxy)-2-[(22S)-8-chloro-17,18-difluoro-4,5,22,28-tetramethyl-21,24,27-trioxa-1,7,34-triazahexacyclo[26.2.2.1^6,^9.1^1^0,^1^4.0^2,^7.0^1^5,^2^0]tetratriaconta-2,4,6(34),8,10(33),11,13,15(20),16,18-decaen-3-yl]acetic Acid]
read-out: Activity
  EC50: < 0.1 µM

## Cc1c([C@H](OC(C)(C)C)C(=O)O)c2n3c(Cl)c(nc3c1CO)-c1cccc(c1)-c1cc(F)c(F)cc1O[C@@H](C)COCCOC1(C)CCN2CC1 [Example 9, (2S)-2-(tert-Butoxy)-2-[(22S)-8-chloro-17,18-difluoro-5-(hydroxymethyl)-4,22,28-trimethyl-21,24,27-trioxa-1,7,34-triazahexacyclo[26.2.2.1^6,^9.1^1^0,^1^4.0^2,^7.0^1^5,^2^0]tetratriaconta-2,4,6(34),8,10(33),11,13,15(20),16,18-decaen-3-yl]acetic Acid]
read-out: Activity
  EC50: < 0.1 µM

## Cc1c([C@H](OC(C)(C)C)C(=O)O)c2n3c(Cl)c(nc3c1Cn1cccn1)-c1cccc(c1)-c1cc(F)c(F)cc1O[C@@H](C)COCCOC1(C)CCN2CC1 [Example 10, (2S)-2-(tert-Butoxy)-2-[(22S)-8-chloro-17,18-difluoro-4,22,28-trimethyl-5-(1H-pyrazol-1-ylmethyl)-21,24,27-trioxa-1,7,34-triazahexacyclo[26.2.2.1^6,^9.1^1^0,^1^4.0^2,^7.0^1^5,^2^0]tetratriaconta-2,4,6(34),8,10(33),11,13,15(20),16,18-decaen-3-yl]acetic acid]
read-out: Activity
  EC50: < 0.1 µM
read-out: EC50 μM
  EC50: 0.005 µM

## COCc1c(C)c([C@H](OC(C)(C)C)C(=O)O)c2n3c(Cl)c(nc13)-c1cccc(c1)-c1cc(F)c(F)cc1O[C@@H](C)COCCOC1(C)CCN2CC1 [Example 11, (2S)-2-(tert-Butoxy)-2-[(22S)-8-chloro-17,18-difluoro-5-(methoxymethyl)-4,22,28-trimethyl-21,24,27-trioxa-1,7,34-triazahexacyclo[26.2.2.1^6,^9.1^1^0,^1^4.0^2,^7.0^1^5,^2^0]tetratriaconta-2,4,6(34),8,10(33),11,13,15(20),16,18-decaen-3-yl]acetic Acid]
read-out: Activity
  EC50: < 0.1 µM

## Cc1c([C@H](OC(C)(C)C)C(=O)O)c2n3c(Cl)c(nc3c1Cn1ccnn1)-c1cccc(c1)-c1cc(F)c(F)cc1O[C@@H](C)COCCOC1(C)CCN2CC1 [Example 12, (2S)-2-(tert-Butoxy)-2-[(22S)-8-chloro-17,18-difluoro-4,22,28-trimethyl-5-(1H-1,2,3-triazol-1-ylmethyl)-21,24,27-trioxa-1,7,34-triazahexacyclo[26.2.2.1^6,^9.1^1^0,^1^4.0^2,^7.0^1^5,^2^0]tetratriaconta-2,4,6(34),8,10(33),11,13,15(20),16,18-decaen-3-yl]acetic Acid]
read-out: Activity
  EC50: < 0.1 µM
read-out: EC50 μM
  EC50: 0.012 µM

Reference: US10138253B2, “Imidazopyridine macrocycles as inhibitors of human immunodeficiency virus replication” (priority 2015, dated 2018)
